Experiments:
[1] = test system: PDE4A, PDE4B, PDE4D, PDE7A; assay: Overall PDE inhibitor profile from the yeast assays (table footnotes, summary); assay type: cell-based
Description: PDE inhibitors were identified using methods described herein, such as high throughput drug screens on genetically engineered fission yeast strains that express drug targets (e.g., PDE4A and/or PDE4B, which are anti-inflammatory targets). PDE inhibitors were identified based on their ability to stimulate growth and compounds were identified because they were effective in live cells. In addition, targets used in the assays are full-length proteins (as opposed to simply the catalytic domain) and the assay used included a built-in toxicity test, permeability test and stability test. The inhibitors identified display a very high degree of target specificity. Compounds identified include inhibitors that act on two of three PDE4 family enzymes and inhibitors that act on combinations of PDE4 and PDE7 strains. […] Limited inhibition of PDE4D by a PDE inhibitor is desirable, in view of the fact that inhibition of PDE4D causes emesis and cardiac arrhythmias. Subtype specificity was confirmed by means of cAMP assays.
(§1) Cells were pregrown in EMM medium [MP Biomedicals (Solon, OH), 3% glucose, filter-sterilized to avoid carmelization, which would introduce variability into the optical density of the medium] containing from 0 mM to 2.5 mM cAMP (or either 0.5 mM or 1.0 mM cGMP). This was to repress expression of the fbp1-ura4 reporter prior to exposure of cells to 5FOA medium. Cells were grown at 30° C. to exponential phase (approximately 10^7 cells/ml). Cells were collected by centrifugation and resuspended in 5FOA medium, and 25 μl were transferred to 384-well microtiter dishes (untreated, with flat clear bottoms) that had been pre-filled with 25 μl 5FOA medium and pre-pinned with 100 nl of compounds (stock solutions were generally 10 mM). Starting cell concentrations ranged from 0.5×10^5 to 4×10^5 cells/ml depending on the screening strain. […] Other positive control dishes contained 5 mM cAMP in the 5FOA medium for PDEs that lack appropriate control compounds. Cultures were grown for 48 hours at 30° C., sealed in an airtight container with moist paper towels to prevent evaporation. Optical densities (OD600) of cultures were measured using a microplate reader. Bioinformatic analysis of the results to determine composite Z scores was performed as previously described (1, 3).

[2] = target: T1, PDE7A (Homo sapiens, UniProt Q13946); assay: Fission yeast 5FOA growth assay, strain expressing PDE7A; assay type: cell-based; details: 5FOA growth
T1 construct: targets used in the assays are full-length proteins (as opposed to simply the catalytic domain); expressed in transfected cells; host or cells: Schizosaccharomyces pombe, gene integrated at the cgs2 locus
Experimental: as §1

T1 sequence (Q13946 whole entry, the tested form may be a part): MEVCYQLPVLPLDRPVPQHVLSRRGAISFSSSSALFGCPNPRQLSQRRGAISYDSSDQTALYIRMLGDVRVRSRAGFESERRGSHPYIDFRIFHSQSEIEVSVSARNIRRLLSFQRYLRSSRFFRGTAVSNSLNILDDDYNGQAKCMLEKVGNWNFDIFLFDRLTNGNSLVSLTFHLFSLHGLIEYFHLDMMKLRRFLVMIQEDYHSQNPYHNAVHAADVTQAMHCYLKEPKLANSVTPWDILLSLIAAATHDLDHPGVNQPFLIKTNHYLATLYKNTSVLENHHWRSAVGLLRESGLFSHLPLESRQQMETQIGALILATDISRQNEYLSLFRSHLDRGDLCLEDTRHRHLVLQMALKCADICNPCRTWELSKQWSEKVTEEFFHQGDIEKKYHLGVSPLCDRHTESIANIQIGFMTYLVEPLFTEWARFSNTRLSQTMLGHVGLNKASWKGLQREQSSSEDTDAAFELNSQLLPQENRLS

Row | ED50, PDE 7A [2] | Structure (SMILES) | PDE inhibitor profile in words (table footnote / summary) [1]
1 | – | COc1ccc2c(c1)[C@]1(C)CCC[C@@](C)(CO)C1CC2 (some centres unmarked) [Compound 2067M03] | (1) Strong PDE7A inhibitor, Weak to moderate PDE4A, 4B inhibitor
2 | – | CC(C)Cn1c2ccc(Br)cc2c2nc3ccccc3nc21 [2015, L04] | (5) Moderate 4B inhibitor
3 | – | COC(=O)C1=C(C)N(c2ccccc2Cl)C(=O)/C1=C\c1ccco1 [Compound 27-8] | (2) Strong PDE4A, 4B inhibitor
4 | – | Cc1ccc2c(c1)CC[C@@H]1CC(=O)CC[C@@]21C [Compound 2158J12] | (2) Strong PDE7A and PDE4s (including D) inhibitor
5 | – | COC(=O)C1=C(C)N(c2cccc(C)c2)C(=O)/C1=C\c1cccs1 [Compound 27-5] | (2) Strong PDE4A, 4B inhibitor, Moderate PDE4D inhibitor
6 | – | COC(=O)C1=C(C)N(CC(C)C)C(=O)/C1=C\c1cccs1 [Compound 27-3] | (1) Strong PDE4A, 4B inhibitor
7 | – | N#Cc1sc2sc(C#N)c(-c3cccs3)c2c1N [Compound 30-2] | (1) Weak PDE7A inhibitor
8 | – | COC(=O)C1=C(C)N(Cc2ccccc2)C(=O)/C1=C\c1cccs1 [Compound 27-4] | (1) Strong PDE4A, 4B inhibitor
9 | – | COC(=O)C1=C(C)N(C)C(=O)/C1=C\c1cccs1 [Compound 27-2] | (2) Strong PDE4A, 4B inhibitor; Moderate PDE4D inhibitor
10 | – | C=Cn1c2ccccc2c2nc3ccccc3nc21 [2033, H06] | (1) Moderate to strong PDE4A, 4B inhibitor
11 | – | CCC(=O)C1=C(C)N(c2ccc(F)cc2)C(=O)/C1=C\c1cccs1 [Compound 27-6] | (4) Strong PDE4A, 4B inhibitor, Moderate PDE7A inhibitor
12 | – | CCCCn1c2ccccc2c2nc3ccccc3nc21 [2013, I20] | (2) Strong PDE4A inhibitor
13 | – | C=CCn1c2ccc(Br)cc2c2nc3ccccc3nc21 [2019, G03] | (2)-(4) Moderate PDE4A, 4B inhibitors
14 | – | N#Cc1sc2sc(C#N)c(-c3ccc(Cl)cc3)c2c1N [Compound 30-3] | (3) Little/no activity under conditions used
15 | – | C=CCn1c2ccccc2c2nc3ccccc3nc21 [1427, P20] | (3) Strong 4B, Moderate 4A inhibitor
16 | ND ND weak activity ND ND | CC(C)(C)c1c(C#N)sc2sc(C#N)c(N)c12 [Compound 30-4] | (3) Little/no activity under conditions used
17 | – | C=CCn1c2ccc(Br)cc2c2nc3ccccc3nc21 [2017, C18] | (2)-(4) Moderate PDE4A, 4B inhibitors
18 | – | CC(C)Cn1c2ccccc2c2nc3ccccc3nc21 [1422, M02] | (1) Strong PDE4A inhibitor
19 | – | O=C(O)Cn1c2ccc(Cl)cc2c2nc3ccccc3nc21 [1429, L06] | (4) Moderate PDE4A, 4B inhibitor
20 | – | CCOC(=O)c1sc2sc(C(=O)OCC)c(-c3ccco3)c2c1N [Compound 30-1] | (4) Weak PDE4A inhibitor
21 | – | CCCCn1c2ccccc2c2nc3ccccc3nc21 [2015, P06] | (2)-(4) Moderate PDE4A, 4B inhibitors
22 | – | COC(=O)C1=C(C)N(C)C(=O)/C1=C\c1cccs1 [Compound 27-1] | (1) Strong PDEA5 inhibitor
23 | – | Cc1cc(C)nc(SCC[S+]([O-])c2ccc(C(C)(C)C)cc2)n1 (centres unmarked) [Compound 26-2] | (2) Moderate 4A inhibitor
24 | – | N#Cc1sc2sc(C#N)c(-c3ccco3)c2c1N [Compound 30] | (2) Strong PDE7A inhibitor
25 | – | CCC(=O)C1=C(C)N(c2cccc(C(F)(F)F)c2)C(=O)/C1=C\c1cccs1 [Compound 27-7] | (3) Strong PDE4A5 inhibitor
